Like-named read-outs stand apart in the source and are kept apart here.
Tests used:
[1] = test system: Staphylococcus aureus ATCC 29213; assay: Broth microdilution MIC/MBC; format: cell-based
From the text: (§1) In vitro antimicrobial activity assays - Methodology
(§2) The examined compounds 1 - 24 were screened in vitro for antibacterial and antifungal activities using the broth microdilution method according to procedure reported earlier by our research group and European Committee on Antimicrobial Susceptibility Testing (EUCAST) and Clinical and Laboratory Standards Institute (CLSI) guidelines against a panel of reference and clinical or saprophytic strains of microorganisms, in-cluding Gram-positive bacteria, Staphylococcus aureus ATCC 43300 (Methicillin Resistant S. aureus – MRSA), Staphylococcus aureus ATCC 29213 (Methicillin Susceptible S. aureus – MSSA), Staphylococcus epidermidis ATCC 12228, Enterococcus faecalis ATCC 29212, Micro-coccus luteus ATCC 10240, Bacillus subtilis ATCC 6633 and Bacillus cereus ATCC 10876), Gram-negative bacteria (Bordetella bronchiseptica ATCC 4617, Escherichia coli ATCC 25922, Klebsiella pneumoniae ATCC 13883, Proteus mirabilis ATCC 12453, Salmonella typhimurium ATCC 14028 and Pseudomonas aeruginosa ATCC 9027) and fungi belonging to yeasts (Can-dida albicans ATCC 10231, Candida albicans ATCC 2091, Candida parapsilosis ATCC 22019, Candida glabrata ATCC 90030 and Candida krusei ATCC 14243). The microorganisms be-longing to ATCC came from American Type Culture Collection, routinely used for the evaluation of antimicrobials. […]
(§3) Samples containing examined compounds were dissolved in dimethyl sulfoxide (DMSO). […]
(§4) Subsequently, the MIC (Minimal Inhibitory Concentration) of the compounds was ex-amined by the microdilution broth method, using their two-fold dilutions in Mueller- […]
(§5) Hinton broth or (for bacteria) and RPMI 1640 broth with MOPS (for fungi) prepared in 96-well polystyrene plates. Final concentrations of the compounds ranged from 1000 to 0.488 µg/ml. Microbial suspensions were prepared in 0.85% NaCl with an optical density of 0.5 McFarland standard. Next each bacterial or fungal suspension was added per each well containing broth and various concentrations of the examined compounds. After incuba-

[2] = test system: Staphylococcus epidermidis ATCC 12228; assay: Broth microdilution MIC/MBC; format: cell-based
From the text: as §1, §2, §3, §4, §5

[3] = test system: Proteus mirabilis ATCC 12453; assay: Broth microdilution MIC/MBC; format: cell-based; conditions: ATCC12453
From the text: as §1, §2, §3, §4, §5

[4] = test system: Salmonella typhimurium ATCC 14028; assay: Broth microdilution MIC/MBC; format: cell-based; conditions: Salmonella enterica
From the text: as §1, §2, §3, §4, §5

[5] = test system: Staphylococcus aureus ATCC 43300; assay: Broth microdilution MIC/MBC; format: cell-based; conditions: Staphylococcus aureus ATCC 43300 (MRSA)
From the text: as §1, §2, §3, §4, §5

[6] = test system: Pseudomonas aeruginosa ATCC 9027; assay: Broth microdilution MIC/MBC; format: cell-based; conditions: ATCC9027
From the text: as §1, §2, §3, §4, §5

[7] = test system: Micrococcus luteus ATCC 10240; assay: Broth microdilution MIC/MBC; format: cell-based; conditions: for MBC: ATCC10240
From the text: as §1, §2, §3, §4, §5

[8] = test system: Bacillus subtilis ATCC 6633; assay: Broth microdilution MIC/MBC; format: cell-based; conditions: for MBC: ATCC6633
From the text: Detailed procedures are presented in the Supplementary Materials. […]
as §1
as §2, with “antimicrobials. All the used microbial cultures were first subcultured on nu-trient agar or Sabouraud agar at 35°C for 18-24 h or 30°C for 24-48 h for bacteria and fungi,” for “antimicrobials.”
(§6) The surface of Mueller-Hinton agar (for bacteria) and RPMI 1640 with MOPS (for fungi) were inoculated with the suspensions of bacterial or fungal species. Microbial suspensions were prepared in sterile saline with an optical density of McFarland standard scale 0.5.
(§7) Samples containing examined compounds were dissolved in dimethyl sulfoxide (DMSO).
(§8) Furthermore, bacterial and fungal suspensions were put onto Petri dishes with solid me-dia containing 2 mg/mL of the tested compounds followed incubation at 37°C for 24h and 30°C for 48h for bacteria and fungi, respectively. The inhibition of microbial growth was judged by comparison with a control culture prepared without any sample tested. Ciprof-loxacin, vancomycin, nitrofurantoin, cefuroxime, ampicillin or nystatin (Sigma) were used as a reference antibacterial or antifungal compounds, respectively.
as §4, §5

[9] = test system: Klebsiella pneumoniae ATCC 13883; assay: Broth microdilution MIC/MBC; format: cell-based; conditions: ATCC13883
From the text: as §1
as §2, with “antimicrobials. All the used microbial cultures were first subcultured on nu-trient agar or Sabouraud agar at 35°C for 18-24 h or 30°C for 24-48 h for bacteria and fungi,” for “antimicrobials.”
as §6, §7, §8, §4, §5

[10] = test system: Bordetella bronchiseptica ATCC 4617; assay: Broth microdilution MIC/MBC; format: cell-based; conditions: ATCC4617
From the text: as §1
as §2, with “antimicrobials. All the used microbial cultures were first subcultured on nu-trient agar or Sabouraud agar at 35°C for 18-24 h or 30°C for 24-48 h for bacteria and fungi,” for “antimicrobials.”
as §6, §7, §8, §4, §5

[11] = test system: Bacillus cereus ATCC 10876; assay: Broth microdilution MIC/MBC; format: cell-based
From the text: as §1
as §2, with “antimicrobials. All the used microbial cultures were first subcultured on nu-trient agar or Sabouraud agar at 35°C for 18-24 h or 30°C for 24-48 h for bacteria and fungi,” for “antimicrobials.”
as §6, §7, §8, §4, §5

[12] = test system: Escherichia coli ATCC 25922; assay: Broth microdilution MIC/MBC; format: cell-based; conditions: ATCC25922
From the text: as §1
as §2, with “antimicrobials. All the used microbial cultures were first subcultured on nu-trient agar or Sabouraud agar at 35°C for 18-24 h or 30°C for 24-48 h for bacteria and fungi,” for “antimicrobials.”
as §6, §7, §8, §4, §5

[13] = test system: Enterococcus faecalis ATCC 29212; assay: Broth microdilution MIC/MBC; format: cell-based
From the text: as §1
as §2, with “antimicrobials. All the used microbial cultures were first subcultured on nu-trient agar or Sabouraud agar at 35°C for 18-24 h or 30°C for 24-48 h for bacteria and fungi,” for “antimicrobials.”
as §6, §7, §8, §4, §5

[14] = test system: Candida albicans ATCC 10231; assay: Broth microdilution MIC/MFC; format: cell-based
From the text: as §1
as §2, with “antimicrobials. All the used microbial cultures were first subcultured on nu-trient agar or Sabouraud agar at 35°C for 18-24 h or 30°C for 24-48 h for bacteria and fungi,” for “antimicrobials.”
as §6, §7, §8, §4, §5

[15] = test system: Candida krusei ATCC 14243; assay: Broth microdilution MIC/MFC; format: cell-based
From the text: as §1
as §2, with “antimicrobials. All the used microbial cultures were first subcultured on nu-trient agar or Sabouraud agar at 35°C for 18-24 h or 30°C for 24-48 h for bacteria and fungi,” for “antimicrobials.”
as §6, §7, §8, §4, §5

[16] = test system: Candida glabrata ATCC 90030; assay: Broth microdilution MIC/MFC; format: cell-based
From the text: as §1
as §2, with “antimicrobials. All the used microbial cultures were first subcultured on nu-trient agar or Sabouraud agar at 35°C for 18-24 h or 30°C for 24-48 h for bacteria and fungi,” for “antimicrobials.”
as §6, §7, §8, §4, §5

[17] = test system: Candida albicans ATCC 2091; assay: Broth microdilution MIC/MFC; format: cell-based
From the text: as §1
as §2, with “antimicrobials. All the used microbial cultures were first subcultured on nu-trient agar or Sabouraud agar at 35°C for 18-24 h or 30°C for 24-48 h for bacteria and fungi,” for “antimicrobials.”
as §6, §7, §8, §4, §5

[18] = test system: Candida parapsilosis ATCC 22019; assay: Broth microdilution MIC/MFC; format: cell-based
From the text: as §1
as §2, with “antimicrobials. All the used microbial cultures were first subcultured on nu-trient agar or Sabouraud agar at 35°C for 18-24 h or 30°C for 24-48 h for bacteria and fungi,” for “antimicrobials.”
as §6, §7, §8, §4, §5

Cc1ccccc1/C=N/NC(=O)c1ccc(O)cc1O [Compound 1, 2,4-dihydroxy-N-[(2-methylphenyl)methylidene]benzohydrazide]
> 1: MBC/MIC [1] | MBC/MIC [5] | MBC/MIC [13]
> 1000 µg/mL: MBC ([1]; ATCC29213) | MIC ([2]; ATCC12228, read-out: MIC) | MIC [3] | MIC [4] | MBC [5] | MIC [6] | MBC [7] | MBC [8] | MIC [9] | MIC [10] | MIC ([11]; ATCC10876, read-out: MIC) | MIC [12] | MBC ([13]; ATCC29212, read-out: MBC) | MIC ([14]; ATCC10231, read-out: MIC) | MIC ([15]; Pichia kudriavzevii, ATCC14243, read-out: MIC) | MIC ([16]; Nakaseomyces glabratus, ATCC90030, read-out: MIC) | MIC ([17]; ATCC2091, read-out: MIC) | MIC ([18]; Lodderomyces parapsilosis, ATCC22019, read-out: MIC)
> 2: MBC/MIC [7] | MBC/MIC [8]
500 µg/mL: MIC ([7]; ATCC10240, read-out: MIC) | MIC ([8]; ATCC6633, read-out: MIC)
1000 µg/mL: MIC ([1]; ATCC29213) | MIC [5] | MIC ([13]; ATCC29212, read-out: MIC)
250 °C: melting point

O=C1CN(/N=C/c2ccc([N+](=O)[O-])o2)C(=O)N1 [NIT, nitrofurantoin, reference compound]
15.6 µg/mL: MBC [5] | MIC [9] | MBC ([11]; ATCC10876) | MBC [12]
> 1000 µg/mL: MBC [10]
125 µg/mL: MBC [3] | MIC [10]
7.81 µg/mL: MBC ([2]; ATCC12228) | MIC [5] | MIC [11] | MIC ([11]; ATCC10876, read-out: MIC) | MIC [12]
62.5 µg/mL: MIC [3] | MBC [4] | MIC [7] | MBC [7] | MIC ([7]; ATCC10240, read-out: MIC)
3.91 µg/mL: MIC [2] | MIC ([2]; ATCC12228, read-out: MIC) | MIC [8] | MBC [8] | MIC ([8]; ATCC6633, read-out: MIC)
31.2 µg/mL: MIC [4] | MBC [9]

C[C@@H]1[C@H](O)[C@@H](C)/C=C/C=C/CC/C=C/C=C/C=C/C=C/C(O[C@H]2O[C@H](C)[C@@H](O)[C@H](N)[C@@H]2O)CC2O[C@](O)(CC(O)C(O)CCC(O)CC(O)CC(O)CC(=O)O[C@H]1C)CC(O)C2C(=O)O (some centres unmarked) [NY, nystatin, reference compound]
0.48 µg/mL: MFC [14] | MIC [14] | MFC [16] | MFC [18]
1: MFC/MIC [14] | MFC/MIC [15] | MFC/MIC [17]
0.24 µg/mL: MFC [15] | MIC [15] | MIC [16] | MFC [17] | MIC [17] | MIC [18]
2: MFC/MIC [16] | MFC/MIC [18]

CN[C@H](CC(C)C)C(=O)N[C@H]1C(=O)N[C@@H](CC(N)=O)C(=O)N[C@H]2C(=O)N[C@H]3C(=O)N[C@H](C(=O)N[C@H](C(=O)O)c4cc(O)cc(O)c4-c4cc3ccc4O)[C@H](O)c3ccc(c(Cl)c3)Oc3cc2cc(c3O[C@@H]2O[C@H](CO)[C@@H](O)[C@H](O)[C@H]2O[C@H]2C[C@](C)(N)[C@H](O)[C@H](C)O2)Oc2ccc(cc2Cl)[C@H]1O [VA, vancomycin, reference compound]
1.95 µg/mL: MBC [13]
0.98 µg/mL: MIC [13]
2: MBC/MIC [13]
